Structures are written as SMILES.

Holding throughout (assay type): physicochemical
Data set [1] can be described thus: Aqueous solubility and dissolution rate comparison of crystal forms. The conditions noted are these: comparison of the two forms.
Data set [2] can be described thus: Stability of crystal forms stored at different relative humidities (XRD). To be noted: entire relative humidity range (0-95% RH). On the procedure: XRD patterns were obtained for samples of F-I and F-III stored at different relative humidities (0, 22, 50, and 80%). There is a gradual shifting of the initial (0% RH) F-III peaks at about 13.8, 17.6, 18.0, 20.5 and 24.0° in 2θ as well as slight shifting of less intense peaks, as the relative humidity is increased. These observed changes in the XRD patterns of F-III indicate that the unit cell dimensions are changing, presumably to accommodate weakly held water molecules as the relative humidity is increased.
A similar experiment was carried out on F-I to determine whether varying the relative humidity would have a similar effect on its lattice (0, 25, 52, 73 and 95% RH). Very slight shifting of the 0% RH peaks at about 7.7, 18.3, 18.5, 20.5, 20.8° in 2θ is observed as the relative humidity is increased. […] The shifting of peaks in the XRD patterns of F-I is less dramatic than the peak shifts observed as F-III was exposed to different relative humidities.
XRD patterns were obtained on a Siemens D5000 X-ray powder diffractometer, equipped with a CuKα source (λ=1.54056 Å) and a Kevex solid-state detector, operating at 50 kV and 40 mA. Each sample was scanned between 4° and 35° in 2θ. Samples were allowed to equilibrate for at least 30 minutes at the desired temperature and/or relative humidity before data collection.

Data set [3] can be described thus: Hygroscopicity / moisture sorption isotherms (VTI vacuum moisture balance). On the procedure: Hygroscopicicity studies were performed on F-I and F-III. Upon initial exposure of the samples to approximately 5% RH, there was an immediate weight gain of 1.5% and 1.7% moisture for F-I and F-III, respectively, equivalent to approximately 0.5 mole of water. Both forms show a continuous sorption of moisture through the entire humidity range, which is likely due to incorporation of water molecules in the lattices. The moisture sorption profiles for F-I and F-III reveal that these forms are essentially non-stoichiometric hydrates. At ambient relative humidity (about 50% RH), F-I contains approximately 1.7% water, corresponding to 0.5 moles of water, while F-III has sorbed about 3.0% water which corresponds to about 0.85 moles of water. The bulk forms of F-I and F-III rapidly equilibrate with the atmosphere, so that the water content observed by analytical techniques is a reflection of the relative humidity at the time of data collection. Lot-to-lot differences observed in the DSC data likely results from the samples being hydrated to different extents due to different ambient storage conditions. Hygroscopicity measurements were made for F-I and F-III using the VTI method as follows. Each sample was dried under vacuum at 60° C. until no further weight loss was detected, at which time the sample chamber was brought to 0% relative humidity. Moisture sorption isotherms were obtained at 25° C. using a VTI vacuum moisture balance with the following conditions: sample size 10-15 mg, adsorption/desorption range 0-95% relative humidity, step interval 5%, sample interval 10 minutes.

A short description of data set [4]: Stability at ambient temperature relative to arzoxifene prepared per '474. To be noted: relative to arzoxifene produced by the procedures taught in '474.

As to `COc1ccc(-c2sc3cc(O)ccc3c2Oc2ccc(OCCN3CCCCC3)cc2)cc1.Cl` [F-III, 6-hydroxy-3-(4-[2-(piperidin-1-yl)ethoxy]phenoxy)-2-(4-methoxyphenyl)benzo[b]thiophene hydrochloride], in data set [1], the “aqueous solubilities (F-I versus F-III)” value is reported as “comparable” and the “dissolution rates (F-I versus F-III)” value was “comparable”. Further, the “stability over relative humidity range” value in data set [2] was “stable over the entire relative humidity range”. Also, in data set [3] (about 50% RH), the “water content at ambient relative humidity” value is recorded as “about 3.0%” and the “water content at ambient relative humidity, in moles of water” value is reported as “about 0.85 moles”. Further, the “water equivalent of the initial weight gain” value in data set [3] (approximately 5% RH) is “approximately 0.5 mole”. For the same compound, the “immediate weight gain (moisture) upon initial exposure” value in data set [3] (approximately 5% RH, 25° C., after vacuum drying at 60° C.) stood at 1.7%. Further, in data set [4], the “stability at ambient temperature” value is recorded as “more stable at ambient temperature”.

For the origin of these results see US6610706B1, “Crystalline form of 6-hydroxy-3-(4-[2-(piperidin-1-yl)ethoxy]phenoxy)-2-(4-methoxyphenyl)benzo[b]thiophene hydrochloride” (Eli Lilly and Company, priority 1999, dated 2003).
